In paper PMC4157579, “Lysine Acetylation Controls Local Protein Conformation by Influencing Proline Isomerization” (Molecular Cell, 2014):
Ends that are not written are not given here.

How the values were obtained:
[1] = tested on: Spt7 bromodomain (residues 363–619); experiment: SPR binding of H3 peptides to immobilized Spt7 bromodomain; design: species or system yeast; settings: for Binding to Spt7 bromodomain: SPR, Biacore T100/T200, 25°C, peptides 1-200 µM in HBS-P+, NTA chip-captured His-tagged bromodomain, 1:1 model, Figure 6A, n = 2–11
Excerpt: (§1) We developed a second assay that involves monitoring the effect of the P16V substitution on the binding of the Spt7 bromodomain to an H3 peptide modified by acetylation at K14 and/or K18 using surface plasmon resonance (SPR) (Figures 6A, S4A, and S4B) or by pull downs (Figures 6B and S4C). Bromodomains are acetyl-lysine binding domains, found in a number of chromatin-associated proteins ([Taverna et al., 2007]) including Spt7. The function and binding specificity of the Spt7 bromodomain are currently unknown, but it preferentially interacts with hyperacetylated histones in vitro ([Hassan et al., 2007]). […] The binding of the Spt7 bromodomain to the P16V-substituted K18ac peptide improved binding by ∼2-fold. […] We reasoned that this could reflect an effect of the side chain on binding or an influence on the conformation of the A15-P16 bond. […] The corollary of this is that acetylation of K14 would correlate with the A15-P16 bond in the trans configuration, supporting ideas that the peptidyl-prolyl bond conformation is mainly determined by local effects in proteins ([Reimer et al., 1998]).
(§2) Figure 6 K14ac Promotes P16trans (A) Relative binding ± SEM (n = 2–11) assessed by surface plasmon resonance of purified recombinant Spt7 bromodomain (residues 363–619) to the indicated H3 peptides (11–26). (B) Coomassie-stained gel showing a pull-down experiment, quantified relative to the K18ac peptide, with the indicated H3 peptides and the purified recombinant Spt7 bromodomain (n = 3). (C) A chymotrypsin-coupled assay for proline isomers using synthetic hexamers based on GGKAPF-pNA (unmodified). pNA is released by chymotrypsin cleavage only from the trans-proline-containing peptide. (D) K14ac and substitutions at K14 influence isomerization at A15-P16 and pNA release, expressed as mean initial rate ± SEM (n = 4–5) over the first 0.6–10.2 s of the reaction. (E) Schematic showing how K14ac or the K14R substitution influence A15-P16 conformation. (F) Schematic showing how dynamic K14ac influences A15-P16 conformation and K4me3 (K4 and K14 denote that these residues are not trimethylated or acetylated respectively). (G) The balance of positive-acting factors (right panel) and negative-acting factors (left panel) controls levels of K4me3 at individual genes. […] See also Figure S4. […]
(n=5771) with the ratios of H3-normalised K4me3 in the K14A and P16V strains relative to the WT strain. Genes with ratios > 2 (n = 7 and 4 for K14A/WT and P16V/WT respectively) have been removed for clarity. Highlighted are the genes with the 200 highest and lowest ratios selected for further analysis (K14/P16-independent and K14/P16-dependent gene classes respectively). (C) Overlap (%) between the four selected gene classes from Figure S3B and the genes temporally expressed during the yeast metabolic cycle (YMC: OX, oxidative; R/B, reductive building; R/C, reductive charging phase), induced/repressed by the environmental stress response (ESR), classed as ribosomal protein genes (RPGs) or ribosome biogenesis genes (Ribis), or regulated predominantly by SAGA or TFIID. […]
YMC and ESR expression data were taken from (Tu et al., 2005) and (Gasch et al., 2000) respectively. SAGA/TFIID-regulated genes were obtained from (Huisinga and Pugh, […]
Figure S4. (Related to Figure 6)
(A) Surface plasmon resonance (SPR) affinity fits for the indicated H3 peptides encompassing residues 11-26 binding to the Spt7 bromodomain (residues 363-619). Also shown is a typical sensorgram of H3 peptide binding to the Spt7 bromodomain […]
values ± SEM for Spt7 binding to variously-modified H3 peptides. (C) A peptide pull-down experiment with a range of H3 peptides and the WT or substituted Spt7 bromodomain […]
Peptides for bromodomain interaction studies
Peptides were synthesized at GL Biochem (Shanghai) LTD, China and Proteogenix, France.
(§3) Purity was determined with MALDI-TOF mass spectrometry and HPLC and the peptides used […]
The peptide sequences are listed in the […]

[2] = tested on: Spt7 bromodomain (residues 363–619); experiment: Peptide pull-down with Spt7 bromodomain; assay type: binding, yeast; settings: for Binding to Spt7 bromodomain: SulfoLink resin, bromodomain 30 µg/ml, 2 h at 4°C, Coomassie gel, relative to K18ac peptide, Figure 6B, n = 3
Excerpt: as §1, §2
(n=5771) with the ratios of H3-normalised K4me3 in the K14A and P16V strains relative to the WT strain. Genes with ratios > 2 (n = 7 and 4 for K14A/WT and P16V/WT respectively) have been removed for clarity. Highlighted are the genes with the 200 highest and lowest ratios selected for further analysis (K14/P16-independent and K14/P16-dependent gene classes respectively). […]
as §3

[3] = tested on: bromodomain carrying alanine substitutions (Y500A/Y520A/N521A); experiment: Peptide pull-down with substituted Spt7 bromodomain; assay type: binding, yeast; settings: bromodomain with alanine at Y500, Y520 and N521, Figure S4C
Excerpt: as §1, with “1998]). […]” for “1998]).”
bin expressed as a proportion of the total K4me3 across the gene. […] P values were calculated from a simulated probability distribution curve. […]
as §3

[4] = molecular target: T1, Spt7 bromodomain (residues 363–619) (UniProt P35177 363-619); experiment: SPR; peptides binding to immobilized Spt7 bromodomain; Biacore T100 and T200, 25°C; 1:1 binding model; relative binding; settings: both partners purified
T1 construct: Spt7, bromodomain construct, amino acids 363-619; also called purified recombinant Spt7 bromodomain; source: recombinant, expressed and purified as described (Boubriak et al., 2009)
T1 sequence (looked up): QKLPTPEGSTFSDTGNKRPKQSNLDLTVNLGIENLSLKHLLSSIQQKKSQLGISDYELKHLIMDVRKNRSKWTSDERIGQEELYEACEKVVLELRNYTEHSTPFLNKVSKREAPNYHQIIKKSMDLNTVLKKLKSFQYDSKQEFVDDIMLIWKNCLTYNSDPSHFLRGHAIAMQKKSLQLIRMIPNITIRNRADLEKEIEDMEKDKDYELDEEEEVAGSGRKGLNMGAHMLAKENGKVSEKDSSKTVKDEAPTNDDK

TGG(Kac)APR(Kac)QLASKAARC [peptide acetylated at both K14 and K18]
Binding to Spt7 bromodomain [1]: binding to the Spt7 bromodomain similar to the P16V-K18ac peptide

TGG(Kac)APRKQLASKAARC [peptide acetylated at K14, H3 peptide (11–26) acetylated at K14, for bromodomain studies]
Binding to Spt7 bromodomain [1]: lack of binding
Binding to Spt7 bromodomain [2]: lack of binding

TGGKAPR(Kac)QLASKAARC [K18ac, H3 peptide (11–26) acetylated at K18]
Binding to substituted Spt7 bromodomain [3]: lack of binding
Binding to Spt7 bromodomain [1]: specifically recognized acetylated K18
Binding to Spt7 bromodomain [2]: specifically recognized acetylated K18
Enrichment of binding over the unmodified peptide ([2]; WT versus Y500A/Y520A/N521A bromodomain, Figure S4C): enriched

TGGKAPRKQLASKAARC [unmodified H3 peptide, H3 peptide (11–26), unmodified, for bromodomain studies]
Binding to Spt7 bromodomain [1]: lack of binding
Binding to Spt7 bromodomain [2]: lack of binding

TGGKAVR(Kac)QLASKAARC [P16V-K18ac, H3 peptide (11–26), P16V, acetylated K18]
Improvement of binding to Spt7 bromodomain on P16V substitution ([1]; P16V-substituted versus K18ac peptide, SPR (text does not say whether SPR or pull-down), 25°C): ~2 fold

TGGRAPR(Kac)QLASKAARC [K14R-K18ac, H3 peptide (11–26), K14R, acetylated K18]
Binding to Spt7 bromodomain [1]: no binding was observed

TGGRAVR(Kac)QLASKAARC [valine substitution at P16 in the K14R-K18ac peptide]
Binding to Spt7 bromodomain [1]: restored binding at levels between the P16V-K18ac and K18ac peptides

B1: K14R-K18ac H3 peptide (11–26) with a valine substitution at P16 (peptide, UniProt P61830 12-27, looked up)
peptide: TGGRAVRK(Ac)QLASKAAR
notes: histone H3, residues 11-26; also called K14R-P16V-K18ac peptide; source: synthetic peptide (GL Biochem and Proteogenix)
binding result [4]: binds

B2: P16V-substituted K18ac H3 peptide (11–26) (peptide, UniProt P61830 12-27, looked up)
peptide: TGGKAVRK(Ac)QLASKAAR
notes: histone H3, residues 11-26; also called P16V-K18ac peptide; P16V-K18ac; source: synthetic peptide (GL Biochem and Proteogenix)
fold change of binding against the K18ac peptide [4]: ~2 fold
